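Dose response: 5 concentrations. Exposure: 48 h. Format: 96-well plates. Endpoint: linear interpolation; highest concentration if not reached. TGI marks complete inhibition of growth.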
Assays:
Experiment in all cases: NCI tumour cell line growth inhibition, 48 h
786-0 renal = system: 786-0 renal
MDA-N = system: MDA-N
HOP-18 NSCLC = system: HOP-18 NSCLC
XF 498 CNS = system: XF 498 CNS
DMS 114 small cell lung = system: DMS 114 small cell lung
LXFL 529 NSCLC = system: LXFL 529 NSCLC
SN12K1 renal = system: SN12K1 renal
P388 leukemia = system: P388 leukemia
P388/ADR leukemia = system: P388/ADR leukemia
RXF-631 renal = system: RXF-631 renal

Row | Compound | TGI (786-0 renal) | TGI (MDA-N) | TGI (HOP-18 NSCLC) | TGI (XF 498 CNS) | TGI (DMS 114 small cell lung) | TGI (LXFL 529 NSCLC) | further results
1 | Cc1ncc(CO)c(C=NCCCCCCN=Cc2c(CO)cnc(C)c2O)c1O | > 100 µM | > 100 µM | – | – | – | – | –
2 | COc1cc(Cc2ccc3c(c2C#N)N(C)c2ccccc2S3)cc(OC)c1OC | – | – | > 100 µM | > 100 µM | > 100 µM | > 100 µM | –
3 | Cc1nc(N(CCO)CCO)c2sc(=S)n(-c3ccccc3)c2n1 | – | – | > 100 µM | – | – | > 100 µM | –
4 | COc1cc(C2S/C(=C/c3ccccc3)C(=O)N2c2ccccc2Cl)cc(OC)c1OC (configuration not stated) | – | 84.6 µM | – | – | – | – | –
5 | CN(CCO)/N=N/c1nc[nH]c1C(N)=O | – | – | – | > 100 µM | > 100 µM | > 100 µM | –
6 | C/C(=N\NC(=S)Nc1ccc(Cl)cc1)c1nc2ncccc2[nH]1 | 29.7 µM | 23.1 µM | – | – | – | – | –
7 | O=c1oc2c(ccc3c(O)cccc32)c2c1CCCC2 | > 100 µM | > 100 µM | – | – | – | – | –
8 | BrC1=CN2C[n+]3cc(Br)c4ccccc4c3N=C2c2ccccc21 | – | 21.4 µM | – | – | – | – | –
9 | NC(=S)N/N=C/c1ccc(OC(=O)COc2ccccc2Cl)cn1 | – | – | > 100 µM | > 92 µM | – | – | TGI (SN12K1 renal): > 100 µM; TGI (P388 leukemia): 13.4 µM; TGI (P388/ADR leukemia): 20.7 µM
10 | CCOC(=O)C(=O)Nc1cccc(C)c1C | – | – | > 100 µM | > 100 µM | > 100 µM | > 100 µM | –
11 | C/C([O-])=C(/c1nc(-c2ccc([N+](=O)[O-])o2)no1)[n+]1cc(C)ccc1C | – | – | 21.8 µM | 21.1 µM | 38.9 µM | – | TGI (SN12K1 renal): 28.6 µM; TGI (P388 leukemia): > 100 µM; TGI (P388/ADR leukemia): > 100 µM
12 | O=C(O)CN=c1c2ccccc2n(O)c2ccccc12 | > 100 µM | – | > 100 µM | – | > 100 µM | > 100 µM | TGI (RXF-631 renal): > 100 µM
